{"source": "patent US20220151922A1", "about": "“Medication for Alleviating Parkinson's Symptoms and Method of Administering” (priority 2020, published 2022)", "origin": "cited, not measured here", "key": {"[1]": {"system": "Pseudomonas aeruginosa biofilms"}, "[2]": {"system": "bacteria, bacterial spores, and viruses", "conditions": "versus chlorine bleach"}}}
{"smiles": "OCl", "note": "[HOCl, Hypochlorous acid]", "values": [{"measurement": "removing Pseudomonas aeruginosa biofilms", "setting": "[1]", "result": "effectiveness"}, {"measurement": "effectiveness of killing bacteria, bacterial spores, and viruses relative to chlorine bleach", "setting": "[2]", "result": 100, "unit": "times"}]}
